Measured values taken from patent US11590139B2, “Substituted aminopurine compounds, compositions thereof, and methods of treatment therewith” (Signal Pharmaceuticals, LLC, priority 2014, dated 2023).
pIC50: −log10 of the molar value. Read-outs that look alike come from different tables or passages of the source.

Tested on: Lox-IMVI melanoma cell line
Assay: Lox-IMVI anti-proliferative assay (growth inhibition, Cell Titer-Glo)
Format: cell-based, human
Settings: Lox-IMVI anti-proliferative assay, IC50 activity level, read-out: Activity
Procedure, shortened: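 Growth inhibition is assessed over 72 h in RPMI + 10% FBS at 0.2% DMSO, with ATP-based luminescence used as the viability measure. IC50 is fitted from normalized dose-response data.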

Row | pIC50 (Homo sapiens) | pIC50 | SMILES
1 | 6.00 to 6.30 |  | NC(=O)[C@H]1CC[C@@H](n2c(Nc3c(F)cc(F)cc3F)nc3cnc(N[C@@H]4CCOC4)nc32)CC1 [Example 530, (1S,4s)-4-(2-((R)-tetrahydrofuran-3-ylamino)-8-(2,4,6-trifluorophenylamino)-9H-purin-9-yl)cyclohexanecarboxamide]
2 | < 6.00 |  | CC(CN1CCOCC1)Nc1ncc2nc(Nc3c(Cl)cc(Cl)cc3Cl)n([C@H]3CC[C@@H](C(N)=O)CC3)c2n1 (stereo partly shown) [Example 531, (1s,4s)-4-(2-(1-morpholinopropan-2-ylamino)-8-(2,4,6-trichlorophenylamino)-9H-purin-9-yl)cyclohexanecarboxamide]
3 | > 6.60 |  | C[C@]1(C(N)=O)CC[C@@H](n2c(Nc3c(Cl)cc(C#N)cc3Cl)nc3cnc(NC4CCOCC4)nc32)CC1 [Example 535, (1s,4s)-4-(8-(2,6-dichloro-4-cyanophenylamino)-2-(tetrahydro-2H-pyran-4-ylamino)-9H-purin-9-yl)-1-methylcyclohexanecarboxamide]
4 | 6.00 to 6.30 |  | NC(=O)[C@H]1CC[C@@H](n2c(Nc3c(F)cc(F)cc3F)nc3cnc(NC4CCCOCC4)nc32)CC1 (stereo partly shown) [Example 536, (1s,4s)-4-(2-(oxepan-4-ylamino)-8-(2,4,6-trifluorophenylamino)-9H-purin-9-yl)cyclohexanecarboxamide]
5 | 6.30 to 6.60 |  | NC(=O)[C@H]1CC[C@@H](n2c(Nc3c(F)cc(Cl)cc3F)nc3cnc(NC4CCCOCC4)nc32)CC1 (stereo partly shown) [Example 540, (1s,4s)-4-(8-(4-chloro-2,6-difluorophenylamino)-2-(oxepan-4-ylamino)-9H-purin-9-yl)cyclohexanecarboxamide]
6 | < 6.00 |  | NC(=O)[C@H]1CC[C@@H](n2c(Nc3c(Cl)cc(C(F)(F)F)cc3Cl)nc3cnc(NC4CCCOCC4)nc32)CC1 (stereo partly shown) [Example 544, (1s,4s)-4-(8-(2,6-dichloro-4-(trifluoromethyl)phenylamino)-2-(oxepan-4-ylamino)-9H-purin-9-yl)cyclohexanecarboxamide]
7 | > 6.60 |  | NC(=O)[C@H]1CC[C@@H](n2c(Nc3c(F)cc(F)cc3F)nc3cnc(N[C@@H]4CCC(F)(F)C4)nc32)CC1 [Example 545, (1S,4s)-4-(2-((R)-3,3-difluorocyclopentylamino)-8-(2,4,6-trifluorophenylamino)-9H-purin-9-yl)cyclohexanecarboxamide]
8 | 6.30 to 6.60 |  | C[C@@H](CO)Nc1ncc2nc(Nc3c(F)cc(F)cc3F)n([C@H]3CC[C@@](C)(C(N)=O)CC3)c2n1 [Example 546, (1R,4s)-4-(2-((S)-1-hydroxypropan-2-ylamino)-8-(2,4,6-trifluorophenylamino)-9H-purin-9-yl)-1-methylcyclohexanecarboxamide]
9 | > 6.60 |  | C[C@@H](CO)Nc1ncc2nc(Nc3c(F)cc(Cl)cc3Cl)n([C@H]3CC[C@@](C)(C(N)=O)CC3)c2n1 [Example 547, (1R,4s)-4-(8-(2,4-dichloro-6-fluorophenylamino)-2-((S)-1-hydroxypropan-2-ylamino)-9H-purin-9-yl)-1-methylcyclohexanecarboxamide]
10 | > 6.60 |  | C[C@@H](CO)Nc1ncc2nc(Nc3c(F)cc(F)cc3Cl)n([C@H]3CC[C@@](C)(C(N)=O)CC3)c2n1 [Example 548, (1R,4s)-4-(8-(2-chloro-4,6-difluorophenylamino)-2-((S)-1-hydroxypropan-2-ylamino)-9H-purin-9-yl)-1-methylcyclohexanecarboxamide]
11 | > 6.60 |  | C[C@@H](CO)Nc1ncc2nc(Nc3c(F)cc(Cl)cc3F)n([C@H]3CC[C@@](C)(C(N)=O)CC3)c2n1 [Example 550, (1R,4s)-4-(8-(4-chloro-2,6-difluorophenylamino)-2-((S)-1-hydroxypropan-2-ylamino)-9H-purin-9-yl)-1-methylcyclohexanecarboxamide]
12 | > 6.60 |  | C[C@@H](CO)Nc1ncc2nc(Nc3c(Cl)cc(F)cc3Cl)n([C@H]3CC[C@@](C)(C(N)=O)CC3)c2n1 [Example 551, (1R,4s)-4-(8-(2,6-dichloro-4-fluorophenylamino)-2-((S)-1-hydroxypropan-2-ylamino)-9H-purin-9-yl)-1-methylcyclohexanecarboxamide]

The next lines start with the compound.

Row | SMILES | pIC50 (Homo sapiens) | pIC50
13 | C[C@@H]1COCC[C@H]1Nc1ncc2nc(Nc3c(F)cc(Cl)cc3F)n([C@H]3CC[C@@H](C(N)=O)CC3)c2n1 [Example 532, (1S,4s)-4-(8-(4-chloro-2,6-difluorophenylamino)-2-((3S,4R)-3-methyltetrahydro-2H-pyran-4-ylamino)-9H-purin-9-yl)cyclohexanecarboxamide] | 6.30 to 6.60 | 
14 | C[C@@H]1COCC[C@H]1Nc1ncc2nc(Nc3c(F)cc(F)cc3F)n([C@H]3CC[C@@H](C(N)=O)CC3)c2n1 [Example 533, (1S,4s)-4-(2-((3S,4R)-3-methyltetrahydro-2H-pyran-4-ylamino)-8-(2,4,6-trifluorophenylamino)-9H-purin-9-yl)cyclohexanecarboxamide] | > 6.60 | 
15 | C[C@]1(C(N)=O)CC[C@@H](n2c(Nc3c(Cl)cc(C#N)cc3Cl)nc3cnc(NC4CCC(F)(F)CC4)nc32)CC1 [Example 534, (1s,4s)-4-(8-(2,6-dichloro-4-cyanophenylamino)-2-(4,4-difluorocyclohexylamino)-9H-purin-9-yl)-1-methylcyclohexanecarboxamide] | > 6.60 | 
16 | NC(=O)[C@H]1CC[C@@H](n2c(Nc3c(F)cc(Cl)cc3Cl)nc3cnc(NC4CCCOCC4)nc32)CC1 (stereo partly shown) [Example 537, (1s,4s)-4-(8-(2,4-dichloro-6-fluorophenylamino)-2-(oxepan-4-ylamino)-9H-purin-9-yl)cyclohexanecarboxamide] | > 6.60 | 
17 | NC(=O)[C@H]1CC[C@@H](n2c(Nc3c(F)cc(F)cc3Cl)nc3cnc(NC4CCCOCC4)nc32)CC1 (stereo partly shown) [Example 538, (1s,4s)-4-(8-(2-chloro-4,6-difluorophenylamino)-2-(oxepan-4-ylamino)-9H-purin-9-yl)cyclohexanecarboxamide] | 6.30 to 6.60 | 
18 | NC(=O)[C@H]1CC[C@@H](n2c(Nc3c(Cl)cc(Cl)cc3Cl)nc3cnc(NC4CCCOCC4)nc32)CC1 (stereo partly shown) [Example 539, (1s,4s)-4-(2-(oxepan-4-ylamino)-8-(2,4,6-trichlorophenylamino)-9H-purin-9-yl)cyclohexanecarboxamide] | > 6.60 | 
19 | NC(=O)[C@H]1CC[C@@H](n2c(Nc3c(Cl)cc(F)cc3Cl)nc3cnc(NC4CCCOCC4)nc32)CC1 (stereo partly shown) [Example 541, (1s,4s)-4-(8-(2,6-dichloro-4-fluorophenylamino)-2-(oxepan-4-ylamino)-9H-purin-9-yl)cyclohexanecarboxamide] | 6.00 to 6.30 | 
20 | N#Cc1cc(F)c(Nc2nc3cnc(N[C@H]4CCCOCC4)nc3n2C2CCC(C(N)=O)CC2)c(F)c1 (stereo partly shown) [Example 542, (1s,4s)-4-(8-(4-cyano-2,6-difluorophenylamino)-2-(oxepan-4-ylamino)-9H-purin-9-yl)cyclohexanecarboxamide] |  | < 6.00
21 | N#Cc1cc(F)c(Nc2nc3cnc(NC4CCCOCC4)nc3n2[C@H]2CC[C@@H](C(N)=O)CC2)c(Cl)c1 (stereo partly shown) [Example 543, (1s,4s)-4-(8-(2-chloro-4-cyano-6-fluorophenylamino)-2-(oxepan-4-ylamino)-9H-purin-9-yl)cyclohexanecarboxamide] | > 6.60 | 
22 | C[C@@H](CO)Nc1ncc2nc(Nc3c(Cl)cc(Cl)cc3Cl)n([C@H]3CC[C@@](C)(C(N)=O)CC3)c2n1 [Example 549, (1R,4s)-4-(2-((S)-1-hydroxypropan-2-ylamino)-8-(2,4,6-trichlorophenylamino)-9H-purin-9-yl)-1-methylcyclohexanecarboxamide] | > 6.60 | 
